This is an account of results in US10975081B2, “Substituted fused pyrazole compounds and their use as LRRK2 inhibitors” (GlaxoSmithKline Intellectual Property Development Limited, priority 2015, dated 2021).

In test [1] the target is LRRK2 Ser935 phosphorylation in SH-SY5Y cells over-expressing recombinant full length LRRK2 (Homo sapiens (Human), UniProt Q5S007). As to the kind of experiment: Recombinant cellular LRRK2 AlphaScreen assay. The format is cell-based. To be noted: 60 minutes, read-out: Recombinant cellular LRRK2 alphaScreen assay (pIC50) (converted). The text has this: To determine the activity of compounds against LRRK2 kinase activity in cells, the observed LRRK2 kinase-dependent modulation of LRRK2 Ser 935 phosphorylation (Dzamko et al., 2010, Biochem. J. 430: 405-413) was utilized to develop a quantitative 384 well plate-based immunoassay of LRRK2 Ser935 phosphorylation in the human neuroblastoma cell line SH-SY5Y, engineered to over-express recombinant full length LRRK2 protein.
LRRK2 Ser935 phosphorylation in SH-SY5Y cells over-expressing recombinant full length LRRK2, sequence (Q5S007 whole entry): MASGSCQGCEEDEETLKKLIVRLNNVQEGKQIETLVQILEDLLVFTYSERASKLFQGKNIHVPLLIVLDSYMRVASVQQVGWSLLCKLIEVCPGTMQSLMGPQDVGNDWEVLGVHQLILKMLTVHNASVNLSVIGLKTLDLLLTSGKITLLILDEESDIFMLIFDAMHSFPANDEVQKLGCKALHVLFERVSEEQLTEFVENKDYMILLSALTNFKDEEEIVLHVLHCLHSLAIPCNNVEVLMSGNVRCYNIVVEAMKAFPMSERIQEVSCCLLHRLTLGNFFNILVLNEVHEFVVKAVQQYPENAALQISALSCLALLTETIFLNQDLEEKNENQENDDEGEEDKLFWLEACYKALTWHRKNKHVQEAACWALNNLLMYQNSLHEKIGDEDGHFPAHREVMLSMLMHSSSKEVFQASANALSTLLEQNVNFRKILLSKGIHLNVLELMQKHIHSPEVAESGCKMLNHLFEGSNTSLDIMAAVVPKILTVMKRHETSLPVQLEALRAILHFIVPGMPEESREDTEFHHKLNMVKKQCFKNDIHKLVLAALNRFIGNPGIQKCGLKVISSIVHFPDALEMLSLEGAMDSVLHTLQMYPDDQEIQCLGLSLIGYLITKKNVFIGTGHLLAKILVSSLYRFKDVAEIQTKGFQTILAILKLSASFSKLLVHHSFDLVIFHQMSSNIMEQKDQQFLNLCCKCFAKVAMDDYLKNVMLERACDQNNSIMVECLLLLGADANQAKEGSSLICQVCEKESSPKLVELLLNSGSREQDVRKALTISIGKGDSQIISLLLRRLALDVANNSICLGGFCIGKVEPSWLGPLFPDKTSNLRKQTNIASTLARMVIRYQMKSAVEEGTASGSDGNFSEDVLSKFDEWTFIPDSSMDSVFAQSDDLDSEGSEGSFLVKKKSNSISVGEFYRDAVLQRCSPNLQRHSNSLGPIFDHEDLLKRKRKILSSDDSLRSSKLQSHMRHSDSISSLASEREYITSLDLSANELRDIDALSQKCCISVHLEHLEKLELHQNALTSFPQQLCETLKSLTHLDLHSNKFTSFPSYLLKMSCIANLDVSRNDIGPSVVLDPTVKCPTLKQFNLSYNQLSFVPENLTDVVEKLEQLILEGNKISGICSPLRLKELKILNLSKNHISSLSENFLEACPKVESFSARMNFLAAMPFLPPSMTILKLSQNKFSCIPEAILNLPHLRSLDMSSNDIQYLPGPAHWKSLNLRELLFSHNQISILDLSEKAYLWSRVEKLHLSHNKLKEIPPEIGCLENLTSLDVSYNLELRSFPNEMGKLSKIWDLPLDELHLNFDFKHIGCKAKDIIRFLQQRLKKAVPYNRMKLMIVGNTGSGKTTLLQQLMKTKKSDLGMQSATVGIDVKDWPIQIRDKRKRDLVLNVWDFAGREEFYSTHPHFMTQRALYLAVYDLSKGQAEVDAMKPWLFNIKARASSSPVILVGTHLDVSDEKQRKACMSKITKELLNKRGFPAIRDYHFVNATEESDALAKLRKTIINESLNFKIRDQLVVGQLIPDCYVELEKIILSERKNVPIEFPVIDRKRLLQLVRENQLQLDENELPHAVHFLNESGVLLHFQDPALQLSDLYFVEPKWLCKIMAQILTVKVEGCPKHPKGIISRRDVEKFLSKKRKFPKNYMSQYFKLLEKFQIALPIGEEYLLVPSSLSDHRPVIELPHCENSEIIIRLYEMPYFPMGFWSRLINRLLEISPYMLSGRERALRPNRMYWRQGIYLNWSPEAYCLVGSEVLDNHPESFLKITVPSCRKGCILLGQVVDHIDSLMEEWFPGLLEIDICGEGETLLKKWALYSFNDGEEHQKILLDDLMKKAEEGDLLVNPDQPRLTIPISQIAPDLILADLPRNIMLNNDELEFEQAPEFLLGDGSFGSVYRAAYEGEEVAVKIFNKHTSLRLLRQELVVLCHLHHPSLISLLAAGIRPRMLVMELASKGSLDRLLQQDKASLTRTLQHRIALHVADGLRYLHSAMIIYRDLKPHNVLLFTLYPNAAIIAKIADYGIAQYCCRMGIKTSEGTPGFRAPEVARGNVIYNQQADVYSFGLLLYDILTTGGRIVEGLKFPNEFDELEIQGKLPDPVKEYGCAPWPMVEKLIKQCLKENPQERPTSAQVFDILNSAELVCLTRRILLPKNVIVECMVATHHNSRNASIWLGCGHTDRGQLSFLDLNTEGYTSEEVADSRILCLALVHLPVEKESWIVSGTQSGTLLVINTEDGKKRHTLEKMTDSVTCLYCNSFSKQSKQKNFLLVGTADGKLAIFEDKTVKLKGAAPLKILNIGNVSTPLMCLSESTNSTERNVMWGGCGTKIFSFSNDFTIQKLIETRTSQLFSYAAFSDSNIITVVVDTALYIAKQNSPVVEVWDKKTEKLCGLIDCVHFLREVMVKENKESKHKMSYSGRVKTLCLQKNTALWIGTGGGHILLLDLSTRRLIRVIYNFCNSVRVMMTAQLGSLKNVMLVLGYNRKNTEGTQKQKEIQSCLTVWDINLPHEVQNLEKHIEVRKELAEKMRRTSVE
A BacMam virus expressing full length recombinant LRRK2 was purchased from Invitrogen and amplified by inoculation of SF-9 cells at MOI 0.3 for 4-5 days in Sf-900 III SFM medium supplemented with 3% fetal bovine serum. Infected cell cultures were then centrifuged at 2000 g for 20 minutes, viral supernatant titer determined by anti-gp64 plaque assay and stored at 4° C.
Affinity-purified anti-phospho LRRK2 Ser935 sheep polyclonal antibody (Dzamko et al., 2010, Biochem. J. 430: 405-413) was biotinylated by standard methods (PerkinElmer). Anti-LRRK2 rabbit polyclonal antibody was purchased from Novus Biologicals. AlphaScreen Protein A IgG Kit (including acceptor and donor beads) was purchased from Perkin Elmer.
SH-SY5Y cells were grown in DMEM/F12 medium with 10% dialysed fetal bovine serum and harvested by treatment with 0.5% trypsin-EDTA for 5 minutes at 37° C. followed by centrifugation at 1000 rpm for 4 minutes. The cell pellet was resuspended in Opti-MEM reduced serum media (Invitrogen) at 200,000 cells/ml and mixed with the BacMam LRRK2 virus at M01=50. 50 μl cell solutions were then dispensed to each well of a 384-well plate and incubated at 37° C., 5% CO2 for 24 hours.
Serial dilutions of test compounds were prepared in Opti-MEM reduced serum media (Invitrogen) and 5.6 ul transferred from compound plate to cell assay plate to achieve a top final assay concentration of 10 uM. DMSO was used in certain wells as controls. Cells were incubated at 37° C., 5% CO2 for 60 minutes. The medium was then removed and cells lysed by addition of 20 ul cell lysis buffer (Cell Signaling Technology) and incubation at 4° C. for 20 minutes. 10 ul of antibody/acceptor bead mix [( 1/1000 biotinylated-pS935 LRRK2 antibody, 1/1000 total-LRRK2 antibody, 1/100 Acceptor beads in AlphaScreen detection buffer (25 mM Hepes (pH 7.4), 0.5% Triton X-100, 1 mg/ml Dextran 500 and 0.1% BSA)] was then added to each well and plates incubated for 2 hours at ambient temperature in the dark. 10 μl of donor beads solution (1/33.3 donor beads in AlphaScreen detection buffer) was then added to each well. Following incubation for a further 2 hours at ambient temperature in the dark, plates were read on an EnVision™ plate reader at emission 520-620 nm with excitation 680 nm. Dose response curve data was based on sigmoidal dose-response model.
(In general: Alpha assays give light when donor and acceptor beads are brought close together.)

Test [2] concerns the target Full length G2019 human LRRK2 (Homo sapiens (Human), UniProt Q5S007). The test is described as follows: Full length G2019 human LRRK2 inhibition mass spectrometry assay. Format: biochemical. To be noted: Full length Flag-LRRK2, 25 uM LRRKtide, 2 mM ATP; read-out: Full length G2019 human LRRK2 Inhibition mass spectrometry assay (pIC50) (converted). The method, then:
Mass Spectrometer Settings • LRRKtide Detection settings: Q1 mass 644.8 Da, Q3 mass 638.8, declustering potential 76 volts, collision energy 37 volts, CXP 34 volts • Phospho-LRRKtide Detection settings: Q1 mass 671.4 Da, Q3 mass 638.8, Declustering potential 76 volts, Collision energy 37 volts, CXP 34 volts. • A C4 cartridge was used and running buffers were: A (aqueous) 0.1% formic acid in water B (organic) 0.1% formic acid, 80% acetonitrile, 20% water • 5. Data was analysed using ActivityBase software (IDBS). A percent conversion from LRRKtide to Phospho-LRRKtide was calculated using the following formula: % conversion=(Phospho-LRRKtide product peak area/(Phospho-LRRKtide product peak area+LRRKtide substrate peak area))*100 2) Full Length G2019 Human LRRK2 Inhibition Mass Spectrometry Assay Insect Cell Cultures
Sf9 insect cells (Invitrogen Life Technologies, Carlsbad, Calif.) were maintained at 27° C. in SF 900 II SFM in 500-ml stationary flasks. The cells were maintained in exponential growth phase and subcultured twice per week. For larger volumes, cells were grown in 2-liter shaker flasks (Erlenmeyer, Corning) while being agitated with 120 rpm at 27° C. incubator shaker.
Human G2019 LRRK2 Plasmids Preparation
Primers Used for PCR Cloning:
• pHTBV-F: SEQ ID No: 1 • LRRK2 wt-F1: SEQ ID No: 2 • LRRK2 wt-R1: SEQ ID No: 3 • LRRK2 wt-F2: SEQ ID No: 4 • LRRK2 wt-R2: SEQ ID No: 5 • LRRK2 wt-F3: SEQ ID No: 6 • pHTBV-R: SEQ ID No: 7
The primers described above were used to amplify full length human LRRK2 (amino acids from 1-2527) with N terminal Flag tag from BioCat 116313 using high fidelity PCR polymerase KOD-Plus according to the manufacturer's instructions (KOD-211, TOYOBO). The PCR product was digested with BamHI and KpnI and ligated into BamHI and KpnI digested pHTBV1mcs3 (BioCat 127555). The sequence of the target fragment was confirmed by DNA sequencing. The construct BioCat141351 was generated by Novoprotein.
The G2019 full length Flag-LRRK2 coding sequence is SEQ ID No: 8.
The translated protein sequence for human G2019 full length LRRK2 flag tagged protein is SEQ ID No: 9.
Generation of the BacMam Virus
To generate the recombinant BacMam virus, SF9 cells were seeded in 6-well tissue culture dishes at 9×10^5 cells/well and allowed to attach for 20 min. Transfection procedure was followed using AESOP AP5911v2. Briefly, DH10Bac competent cells (10361-012, Invitrogen) were transformed by the genotypically normal human LRRK2 BacMam plasmid to generate the recombinant baculovirus DNA. The Sf9 insect cells were co-transfected with the mixture of recombinant baculovirus DNA and cellfectin (10362-100, Invitrogen). After 4 h of incubation at 27° C., the transfection media was replaced with Sf-900 III SFM medium containing 5% HI FBS (Ser. No. 10/100,147, Invitrogen). The cells were further incubated for 4 days. The infected cell culture medium containing the baculovirus (P0 virus stock) was collected and amplified by further infecting the Sf9 cells at multiplicity of infection (MOI) (pfu/cell) of 0.1.
Quantification of BacMam Viral Titre by BacPAKRapid Titer
The viral titre, measured as plaque forming unit (pfu)/ml was determined using BacPAK Papid Titer Kit (631406, Clontech) according to the manufacturer's protocol. The Sf9 cells seeded in 96-well plate with 3×10^5 cells per well were incubated with serial dilution of the viral stocks for 1 h at 27° C., 50 μl methyl cellulose overlay was added to each well followed by 43-47 h incubation. The cells were then fixed in 4% paraformaldehyde (PFA). After blocking the cells with diluted normal goat serum, Mouse anti-gp64 antibody was added to the cells. After 30 min incubation, the cells were washed with phosphate buffered saline containing 0.1% Triton-X100 (PBST) and incubated for another 30 min with goat anti-mouse antibody/HRP conjugate. This was followed by blue peroxidase substrate which detects the single infected cells and foci of infected cells by their dark blue color. […]

Test [3] concerns the target Truncated G2019 human LRRK2 (1326-2527) (Homo sapiens (Human), UniProt Q5S007). The test is described as follows: Truncated G2019 human LRRK2 (1326-2527) inhibition mass spectrometry assay. The format is biochemical. To be noted: 6HIS-Tev-LRRK2 (1326-2527), 25 uM LRRKtide, 20 uM ATP; read-out: Truncated G2019 human LRRK2 inhibition mass spectrometry assay (pIC50) (converted). The text has this:
1) Truncated G2019 Human LRRK2 (1326-2527) Inhibition Mass Spectrometry Assay
A LRRK2 cDNA encoding residues 1326-2527 was received from Dundee University (described in M. Jaleel et al., 2007, Biochem J, 405: 407-417). This gene fragment was subcloned into pFB-HTb (Invitrogen) using BamHI and NotI restriction sites. The LRRK2 plasmid was recombined into the baculovirus genome according to the BAC-to-BAC protocol described by Invitrogen. Transfection into Spodoptera frugiperda (Sf9) insect cells was performed using Cellfectin (Invitrogen), according to the manufacturer's protocol to generate P1 and P2 baculovirus stocks.
Sf9 cells were grown in HyClone SFX (Thermo Scientific) growth media at 27° C., 80 rpm in shake flask until of a sufficient volume to inoculate a bioreactor. The cells were grown in a 20 litre working volume Wave bioreactor (GE Healthcare) at 27° C., 50% dissolved oxygen and an agitation rate 22 rocks per minute, 10 degree rock angle, 200 ml/min air with a cell concentration of approximately 6xe6 cells/ml. The cells were infected with P2 Baculovirus at a multiplicity of infection (MOI) of 3. The cultivation was continued for a 48 hour expression phase. The infected cells were removed from the growth media by centrifugation at 2500 g using a Sorvall RC 3C Plus centrifuge at 2500 g for 20 minutes. The cell pellet was immediately frozen and subsequently supplied for purification.
A 260 g pellet was allowed to thaw in a water bath at 27° C. with 800 ml lysis buffer/buffer A (50 mm Tris-HCl pH 8.5, 300 mM NaCl, 1 mm DTT, 10% glycerol, 1 ml/L Calbiochem complete protease inhibitor cocktail and benzonase (50 ul/800 ml)) before being dounce homogenised on ice using 20 strokes per 100 ml. The suspension was packed in ice and sonicated at 50% amplitude for 3 min 10 sec on/off using a ¾″ probe. The suspension was then centrifuged at 100,000 g for 90 min, at 4° C.
The lysate (700 ml) was decanted from the insoluble pellet and contacted for 3h at 4° C. with 10 ml His bind Ni NTA resin by end over end mixing. The resin was recovered by centrifugation, 3000 g, 5 min at 4° C., and packed in an XK16 column. The column was then washed with 10 column volumes buffer A, 10 column volumes buffer B (buffer A+1M NaCl) and 10 column volumes buffer C (buffer A+20 mM imidazole). The column was then eluted with 15 column volumes buffer D (buffer A+300 mM imidazole) collecting 2 ml fractions. All washes and elution were conducted at 4 ml/min.
Fractions identified by SDS-PAGE as containing protein of interest were pooled and loaded directly onto a 320 ml SEC Superdex 200 pg column that was pre-equilibrated with buffer E (50 mM Tris-HCl pH 8.5, 300 mM NaCl, 10% glycerol, 1 mM DTT). The column was loaded and eluted with 1.2 column volumes buffer E at 2 ml/min collecting 2 ml fractions. Fractions identified by SDS-PAGE as containing protein of interest were tested for activity.
Production of LRRKtide for LRRK2 Inhibition Mass Spectrometry Assay
The ‘LRRKtide’ peptide (SEQ ID NO. 10) was synthesized as follows. The protected peptide was assembled on a solid-phase synthesiser using preloaded Wang resin and utilising standard Fmoc synthesis protocols. The crude peptide was obtained after cleavage from the resin with a mixture of trifluoroacetic acid (TFA), triisopropylsilane and water (95:2.5:2.5) for 3 hours at room temperature and was then purified using a C18 reverse-phase column utilising a 0.1% TFA-buffered water/acetonitrile gradient. The resulting fractions were analysed and fractions which were >95% pure by analytical HPLC and giving the correct molecular weight (mw) (by MALDiTOF mass spectroscopy) were pooled and freeze dried. The final material was analysed by HPLC and MALDiTOF mass spectroscopy.
Truncated G2019 Human LRRK2 (1326-2527) Inhibition Mass Spectrometry Assay […]

Full length G2019 human LRRK2, sequence (Q5S007 other isoform, or with tags, fused parts or gaps): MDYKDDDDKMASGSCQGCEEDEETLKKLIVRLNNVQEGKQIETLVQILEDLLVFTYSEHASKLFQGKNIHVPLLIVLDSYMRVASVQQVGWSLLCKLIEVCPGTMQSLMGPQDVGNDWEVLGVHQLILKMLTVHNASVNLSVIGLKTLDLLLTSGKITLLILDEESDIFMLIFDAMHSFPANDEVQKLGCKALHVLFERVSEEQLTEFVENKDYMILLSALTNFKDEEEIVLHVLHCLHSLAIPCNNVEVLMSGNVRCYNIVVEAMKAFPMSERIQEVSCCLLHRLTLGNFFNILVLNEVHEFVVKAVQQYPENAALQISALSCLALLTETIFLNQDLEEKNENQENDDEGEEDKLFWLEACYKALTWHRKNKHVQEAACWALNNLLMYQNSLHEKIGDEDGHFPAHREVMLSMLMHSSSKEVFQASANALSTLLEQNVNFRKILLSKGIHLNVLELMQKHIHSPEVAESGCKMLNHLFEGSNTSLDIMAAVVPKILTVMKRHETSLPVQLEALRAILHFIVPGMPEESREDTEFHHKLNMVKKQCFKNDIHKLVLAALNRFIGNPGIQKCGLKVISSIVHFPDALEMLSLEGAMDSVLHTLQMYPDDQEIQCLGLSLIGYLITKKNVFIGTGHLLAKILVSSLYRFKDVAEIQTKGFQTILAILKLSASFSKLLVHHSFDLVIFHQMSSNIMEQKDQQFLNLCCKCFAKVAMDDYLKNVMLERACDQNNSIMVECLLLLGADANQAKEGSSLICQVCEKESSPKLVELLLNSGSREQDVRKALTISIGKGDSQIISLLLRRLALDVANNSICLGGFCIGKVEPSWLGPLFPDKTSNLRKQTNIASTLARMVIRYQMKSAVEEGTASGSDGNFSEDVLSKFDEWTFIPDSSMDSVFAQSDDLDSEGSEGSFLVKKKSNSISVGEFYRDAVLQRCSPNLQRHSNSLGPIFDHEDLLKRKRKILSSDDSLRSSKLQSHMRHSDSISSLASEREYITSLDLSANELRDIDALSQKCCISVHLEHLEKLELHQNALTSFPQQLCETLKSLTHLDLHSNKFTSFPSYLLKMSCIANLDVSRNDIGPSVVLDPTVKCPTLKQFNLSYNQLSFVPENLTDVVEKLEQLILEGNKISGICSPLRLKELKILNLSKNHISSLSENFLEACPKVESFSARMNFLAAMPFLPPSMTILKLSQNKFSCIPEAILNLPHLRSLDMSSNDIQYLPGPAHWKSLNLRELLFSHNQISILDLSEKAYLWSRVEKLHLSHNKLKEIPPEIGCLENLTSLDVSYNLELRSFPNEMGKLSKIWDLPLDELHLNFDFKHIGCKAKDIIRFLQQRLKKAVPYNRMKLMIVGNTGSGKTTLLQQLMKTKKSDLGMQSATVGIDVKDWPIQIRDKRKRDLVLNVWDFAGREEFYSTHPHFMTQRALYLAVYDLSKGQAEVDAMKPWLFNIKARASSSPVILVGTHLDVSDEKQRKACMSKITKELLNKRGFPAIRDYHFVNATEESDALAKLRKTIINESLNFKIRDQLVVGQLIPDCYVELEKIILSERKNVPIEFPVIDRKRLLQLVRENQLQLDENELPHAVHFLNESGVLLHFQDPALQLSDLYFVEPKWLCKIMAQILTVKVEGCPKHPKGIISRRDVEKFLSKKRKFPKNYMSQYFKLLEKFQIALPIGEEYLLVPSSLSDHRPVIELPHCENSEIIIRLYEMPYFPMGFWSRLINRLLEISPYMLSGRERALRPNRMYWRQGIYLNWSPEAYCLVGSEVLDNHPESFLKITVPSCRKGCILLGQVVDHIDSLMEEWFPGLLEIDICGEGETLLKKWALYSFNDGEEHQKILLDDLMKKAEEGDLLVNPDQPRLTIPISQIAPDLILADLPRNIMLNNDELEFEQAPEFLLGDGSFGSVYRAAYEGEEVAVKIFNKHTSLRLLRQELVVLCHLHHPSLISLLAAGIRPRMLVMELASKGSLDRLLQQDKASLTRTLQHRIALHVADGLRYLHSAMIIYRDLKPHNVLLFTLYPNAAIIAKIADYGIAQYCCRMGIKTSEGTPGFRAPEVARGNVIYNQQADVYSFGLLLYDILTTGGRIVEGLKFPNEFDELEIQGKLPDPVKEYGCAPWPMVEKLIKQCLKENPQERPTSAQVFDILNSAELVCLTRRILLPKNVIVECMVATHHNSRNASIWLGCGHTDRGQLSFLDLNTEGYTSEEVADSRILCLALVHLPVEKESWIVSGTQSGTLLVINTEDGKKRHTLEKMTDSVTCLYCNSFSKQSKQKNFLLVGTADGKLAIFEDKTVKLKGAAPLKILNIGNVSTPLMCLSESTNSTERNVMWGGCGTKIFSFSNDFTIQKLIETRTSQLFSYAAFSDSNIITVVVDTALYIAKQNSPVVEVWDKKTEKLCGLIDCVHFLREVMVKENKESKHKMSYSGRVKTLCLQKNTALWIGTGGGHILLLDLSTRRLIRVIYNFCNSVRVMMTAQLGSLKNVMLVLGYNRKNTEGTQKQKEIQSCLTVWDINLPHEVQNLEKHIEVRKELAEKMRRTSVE

Consider `Cc1nc(N2CC(O)C2)cc(-n2ncc3cc(C)c(C4CCN(C5COC5)CC4F)cc32)n1` (single isomer, unassigned) [Example E42, (cis)-1-(6-(6-(3-Fluoro-1-(oxetan-3-yl)piperidin-4-yl)-5-methyl-1H-indazol-1-yl)-2-methylpyrimidin-4-yl)azetidin-3-ol], for which the IC50 in test [1] was ≤ 100 nM; in test [2], ≤ 10000 nM. With `Cc1nc(-n2ncc3cc(C)c(C4CCN(C5COC5)CC4F)cc32)cc([C@H]2C[C@@H](O)C2)n1` (single isomer, unassigned) [Example E45, (cis)-(1s,3s)-3-(6-(6-(3-Fluoro-1-(oxetan-3-yl)piperidin-4-yl)-5-methyl-1H-indazol-1-yl)-2-methylpyrimidin-4-yl)cyclobutanol], the IC50 in test [2] was ≤ 10000 nM. Take `COc1nc(N2CCO[C@@H](CO)C2)cc(-n2ncc3cc(C)c(C4CCN(C5COC5)CC4F)cc32)n1` (single isomer, unassigned) [Example E170]: the IC50 in test [1] was 5.01 nM; in test [2], 7.94 nM.

Regarding `COc1nc(N2CC(O)C2)cc(-n2ncc3cc(C)c(C4CN(C)CCO4)cc32)n1` (single isomer, unassigned) [Example E230, 1-(2-Methoxy-6-(5-methyl-6-(4-methylmorpholin-2-yl)-1H-indazol-1-yl)pyrimidin-4-yl)azetidin-3-ol], the IC50 in test [1] was 631 nM; in test [2], 251 nM. As for `COc1nc(N2CC(O)C2)cc(-n2ncc3cc(C)c(C4CCN(C5COC5)CC4)cc32)n1` [Example E79, 1-(2-Methoxy-6-(5-methyl-6-(1-(oxetan-3-yl)piperidin-4-yl)-1H-indazol-1-yl)pyrimidin-4-yl)azetidin-3-ol], the IC50 in test [1] is 10 nM; in test [3] it was 12.6 nM.

With `COc1nc(N2CCNCC2)cc(-n2ncc3cc(C)c(N4CCOCC4)cc32)n1` [Example E117, 4-(1-(2-Methoxy-6-(piperazin-1-yl)pyrimidin-4-yl)-5-methyl-1H-indazol-6-yl)morpholine], the IC50 in test [1] was 631 nM; in test [3] it was 25.1 nM.
